# Assay results reported in patent publication US6653529B2, “Use of the maize X112 mutant ahas 2 gene and imidazolinone herbicides for selection of transgenic monocots, maize, rice and wheat plants resistant to the imidazolinone herbicides” (BASF Aktiengesellschaft, priority 2000, dated 2003).
# Tests used:
# [1] = test system: rice plants (transgenic Lines 26 and 29; Nt control); assay: Greenhouse herbicide tests on rice; format: in vivo
# From the text: We evaluated the response of transgenic rice to PURSUIT® imazethapyr application in the greenhouse. In this experiment, we included 2 transgenic lines and their untransformed counterpart (Nt). The transgenic lines, designated as Line 26 and 29, were T3 progeny derived from previously identified homozygous resistant transgenic plants containing the maize XI12 ahas2 gene driven by its own promoter. All seeds were pre-germinated in water for 2-3 days then grown in a planting mixture consisting of 1:1 soil and MetroMix 360 (The Scotts Company, Marysville, Ohio 43040) in 6-inch pots (2 seeds per pot) in the greenhouse and sprayed with PURSUIT® imazethapyr at 63, 125, or 250 g ai/ha. For post-emergence application, the plants were sprayed 15 days after seeding, at which time most plants had 3 leaves. For pre-emergence treatment, PURSUIT® imazethapyr was sprayed one day after seeding. Each treatment contained 20 plants and, and 3 replicates per treatment. One set of materials was not sprayed and used as control. The plants were grown in the greenhouse and harvested at maturity. The amount of PURSUIT® imazethapyr applied in this study (63, 125, or 250 g ai/ha) was close to 1, 2 or 4× field application rate for imi-resistant corn (refer to Table 3) since PURSUIT® imazethapyr is not currently labeled for use in rice fields. A custom designed belt sprayer was operated as described (Newhouse et al. 1992) for all herbicide applications. Five plants from each treatment were randomly chosen and individually measured for morphological traits. Means and standard deviations were calculated over three replications. Plant heights were measured from the base of the plant to the tip of the flag leaf 93 days after herbicide applications (DAH) and number of tillers per plant were counted 102-103 DAH. Data on number of panicles per plant and yield were collected after plants were harvested.
# (§1) A total of 9 herbicides, 5 imidazolinones, two rice herbicides and ACCENT® (nicosulfuron) and CLASSIC® (clorimuron-ethyl) were applied in this study. Materials and methods were basically the same as described above, except that instead of 6″ pots, flats with 18 (3″×3″ per cell) cells were used, and 10-12 seeds were planted to one 3″×3″ cell. Ten plants were maintained in one cell in the post-emergence application. Each herbicide was sprayed at 4 different rates, 1, 2, 4, and 6×, as either pre or post-emergence applications with three replications per treatment. The name and amount of herbicide applied in this experiment and information relevant to their commercial applications are listed in Table 3. For simplicity and convenience, the lowest concentration used is referred as 1× rate, 2, 4 and 6× rates can be calculated as multiples of 1×.
# (§2) To monitor plant response to various herbicides, data on fresh weight was collected. For pre-emergence applications, all plants from one cell were harvested 32 days after spraying (36-day old plants) and weighed. Twenty-nine days after herbicide application, 5 plants (44-day old plants) from each cell in the post-emergence application, were cut and weighed individually. Mean fresh weight for each treatment was calculated over three replications. The remaining 5 plants were grown in the greenhouse to maturity at which time, panicles of 3 plants were collected, and number of filled seeds and number of total kernels were counted to determine percentage of seed set.
# [2] = test system: untransformed Nt rice plants; assay: Response of rice plants to various herbicides, seed set in greenhouse; format: in vivo; details: post-emergence, 1× g ai/ha: PURSUIT 62.5, CADRE 32, ARSENAL 24, RAPTOR 32, SCEPTER 125, ACCENT 35, CLASSIC 5, AC322,140 20, LONDAX 68
# From the text: as §1, §2
# transgenic rice Line 29 = assay: as above; format: in vivo; details: post-emergence, 1× g ai/ha: PURSUIT 62.5, CADRE 32, ARSENAL 24, RAPTOR 32, SCEPTER 125, ACCENT 35, CLASSIC 5, AC322,140 20, LONDAX 68
# From the text: as §1, §2
# transgenic rice Line 26 = assay: as above; format: in vivo; details: post-emergence, 1× g ai/ha: PURSUIT 62.5, CADRE 32, ARSENAL 24, RAPTOR 32, SCEPTER 125, ACCENT 35, CLASSIC 5, AC322,140 20, LONDAX 68
# From the text: as §1, §2
# [3] = test system: transgenic rice containing 35S/als transgene; details: cited from earlier work
# [4] = test system: AHAS (acetohydroxyacid synthase) in extracts of Nortai, Line 26 and Line 29; assay: In vitro AHAS activity assay; format: biochemical, rice; details: Nt, Line 26, Line 29; FIG. 2
# Experimental: Previously published procedures were used for the extraction and in vitro assay for AHAS activity (Singh et al. 1988). Lower portions of the shoots were used as the source of plant tissue for the assay. The desalted crude extracts were used for the in vitro enzyme assays. Acetolactate produced by the enzyme was converted to acetoin, which was measured by the Westerfield assay system.
# In vitro AHAS assays were performed to understand the basis of herbicide tolerance in the transgenic plants. Previously published procedure was used for the extraction and in vitro assay for AHAS activity (Singh et al. 1988). The lower portions of the shoots were used as the source of plant tissue for the assay. The desalted crude extracts were used for the in vitro enzyme assays. Acetolactate produced by the enzyme was converted to acetoin, which was measured by the Westerfield assay system (Westerfield 1945). The specific activity of AHAS was about 30% higher in Line 26 (67 nmoles/mg protein/h) and Line 29 (64 nmoles/mg protein/h) compared to the activity in Nortai (Nt) (50 nmoles/mg protein/h).
Structure (SMILES),% seed-set ([2]; 1× rate),No. filled seeds/3 panicles ([2]; 1× rate),Total No. of kernels/3 panicles ([2]; 1× rate),% seed-set ([2]; 2× rate),No. filled seeds/3 panicles ([2]; 2× rate),Total No. of kernels/3 panicles ([2]; 2× rate),% seed-set ([2]; 4× rate),No. filled seeds/3 panicles ([2]; 4× rate),Total No. of kernels/3 panicles ([2]; 4× rate),% seed-set ([2]; 6× rate),No. filled seeds/3 panicles ([2]; 6× rate),Total No. of kernels/3 panicles ([2]; 6× rate),% seed-set (transgenic rice Line 29; 1× rate),No. filled seeds/3 panicles (transgenic rice Line 29; 1× rate),Total No. of kernels/3 panicles (transgenic rice Line 29; 1× rate),% seed-set (transgenic rice Line 29; 2× rate),No. filled seeds/3 panicles (transgenic rice Line 29; 2× rate),Total No. of kernels/3 panicles (transgenic rice Line 29; 2× rate),% seed-set (transgenic rice Line 29; 4× rate),No. filled seeds/3 panicles (transgenic rice Line 29; 4× rate),further results
"COC(=O)c1ccccc1CS(=O)(=O)NC(=O)Nc1nc(OC)cc(OC)n1 [LONDAX ®, bensulfuron-methyl]",85%,147,172,93%,142,154,91%,113,127,96%,109,114,80%,125,156,90%,133,148,87%,155,effect on growth of all plants treated ([1]; transgenic and control plants): minimal effect; Total No. of kernels/3 panicles (transgenic rice Line 29; 4× rate): 177; % seed-set (transgenic rice Line 29; 6× rate): 86%; No. filled seeds/3 panicles (transgenic rice Line 29; 6× rate): 150; Total No. of kernels/3 panicles (transgenic rice Line 29; 6× rate): 175; % seed-set (transgenic rice Line 26; 1× rate): 80%; No. filled seeds/3 panicles (transgenic rice Line 26; 1× rate): 140; Total No. of kernels/3 panicles (transgenic rice Line 26; 1× rate): 173; % seed-set (transgenic rice Line 26; 2× rate): 90%; No. filled seeds/3 panicles (transgenic rice Line 26; 2× rate): 140; Total No. of kernels/3 panicles (transgenic rice Line 26; 2× rate): 156; % seed-set (transgenic rice Line 26; 4× rate): 65%; No. filled seeds/3 panicles (transgenic rice Line 26; 4× rate): 102; Total No. of kernels/3 panicles (transgenic rice Line 26; 4× rate): 136; % seed-set (transgenic rice Line 26; 6× rate): 89%; No. filled seeds/3 panicles (transgenic rice Line 26; 6× rate): 127; Total No. of kernels/3 panicles (transgenic rice Line 26; 6× rate): 143
"CC(C)C1(C)N=C(c2nc3ccccc3cc2C(=O)O)NC1=O (stereo not shown) [SCEPTER ®, imazaquin]",0%,0,0,0%,0,0,0%,0,0,0%,0,0,87%,138,159,86%,143,165,85%,131,"average seed set in two transgenic lines ([1]; PURSUIT, RAPTOR, CADRE, SCEPTER at all rates tested, ARSENAL 1 to 2×): about 85%; rate at which growth of transgenic plants was slightly affected ([1]; post-emergence, fresh weight and visual observation): 6 ×; rate at which growth of both transgenic lines was affected ([1]; pre-emergence): ≥ 2 ×; Total No. of kernels/3 panicles (transgenic rice Line 29; 4× rate): 155; % seed-set (transgenic rice Line 29; 6× rate): 88%; No. filled seeds/3 panicles (transgenic rice Line 29; 6× rate): 139; Total No. of kernels/3 panicles (transgenic rice Line 29; 6× rate): 159; % seed-set (transgenic rice Line 26; 1× rate): 86%; No. filled seeds/3 panicles (transgenic rice Line 26; 1× rate): 148; Total No. of kernels/3 panicles (transgenic rice Line 26; 1× rate): 172; % seed-set (transgenic rice Line 26; 2× rate): 64%; No. filled seeds/3 panicles (transgenic rice Line 26; 2× rate): 87; Total No. of kernels/3 panicles (transgenic rice Line 26; 2× rate): 135; % seed-set (transgenic rice Line 26; 4× rate): 88%; No. filled seeds/3 panicles (transgenic rice Line 26; 4× rate): 147; Total No. of kernels/3 panicles (transgenic rice Line 26; 4× rate): 166; % seed-set (transgenic rice Line 26; 6× rate): 62%; No. filled seeds/3 panicles (transgenic rice Line 26; 6× rate): 86; Total No. of kernels/3 panicles (transgenic rice Line 26; 6× rate): 109"
COc1nc(C)nc(NC(=O)NS(=O)(=O)c2ccccc2Cl)n1 [chlorsulfuron],,,,,,,,,,,,,,,,,,,,,differences in in vitro resistance ([3]; Arabidopsis ALS promoter replaced with CaMV35S promoter (Li et al. 1992)): 40 fold; increase in in vitro resistance ([3]; transgenic rice containing 35S/als transgene (Li et al. 1992)): 200 fold; inhibition of AHAS activity from all three lines [4]: inhibited in a similar manner
